# Results as given in PMC9927463, “Identification and Characterization of Corynaridin, a Novel Linaridin from Corynebacterium lactis” (Microbiology Spectrum, 2022).
# What was measured:
# C. glutamicum ATCC 13032 [1] = assay: time-kill kinetics; format: cell-based, Corynebacterium glutamicum
# Method: Fresh overnight cultures of C. glutamicum ATCC 13032 were used to inoculate 5 mL 2× TY in glass tubes with a starting OD600 of 0.5 (i.e., ~10^7 CFU/mL). Samples of interest were added at the indicated concentrations prior to inoculation of the medium. Cultures were then incubated on a rotary shaker at 130 rpm for 24 h at 30°C. Samples were collected at the indicated time points, diluted (10^−1 to 10^−8), and plated on 2× TY agar. CFU per milliliter were determined after 24 to 48 h of incubation of the plates at 30°C by counting the colonies for the respective dilution.
# [2] = system: C. glutamicum ATCC 13032/pPB-pHin2^Cg; assay: pHluorin assay for membrane damage; format: cell-based, Corynebacterium glutamicum; conditions: LMB pH 6.2, 30 min room temperature
# Method: For detection of membrane damage, a pHluorin assay was conducted as described earlier ([34]). In particular, a 5-mL BHI overnight culture containing kanamycin (50 μg/mL) of the sensor strain C. glutamicum ATCC 13032/pPB-pHin2^Cg was harvested by centrifugation and resuspended to an OD600 of 3 in Listeria minimal buffer [LMB: 100 mM MOPS, 4.82 mM KH2PO4, 11.52 mM Na2HPO4, 1.7 mM MgSO4, 0.6 g/L (NH4)2SO4, 55 mM glucose (pH 6.2)]. Serial 2-fold dilutions of samples were prepared in black 96-well microtiter plates (Sarsted, Nümbrecht, Germany) with a final volume of 100 μL in each well. Subsequently, 100 μL of the sensor strain suspension was added and the plate was incubated at room temperature in the dark for 30 min. Then, pHluorin2 fluorescence was measured at 520 nm with excitation at the distinct maxima at 400 and 480 nm using an infinite M200 plate reader (Tecan, Männedorf, Switzerland).
# [3] = system: Streptococcus pyogenes strain; conditions: cited from earlier work
# Text: (§1) While extensive studies have been carried out on the structure and chemistry behind their modifications, comparably little is known about the biological functions of linaridins. […] So far, for none of the hitherto described linaridins receptors or mode of action have been prop ...
# Micrococcus luteus = conditions: cited from earlier work
# Text: as §1
# [4] = system: Corynebacterium glutamicum ATCC 13032; assay: spot-on-lawn assay; format: cell-based; design: key to Activity, RPC fraction: +: zone of inhibition; (+): diffuse zone of inhibition; −: no zone of inhibition
# Method: (§2) Antimicrobial activity was determined using a spot-on-lawn assay. Overnight cultures of the respective strains were inoculated with an OD600 of 0.01 into hand-warmed agar medium (16 g/L agar) and poured into sterile petri dishes. After solidification, surfaces of agar plates were air dried at room temperature under a sterile hood. Supernatants and purification fractions were serially diluted and spotted onto agar plates. Plates were incubated under the preferred conditions of the embedded bacteria until growth was visible. Volumetric bacteriocin activity (bacteriocin units [BU] per milliliter) was determined by dividing the last dilution factor resulting in a visible zone of inhibition by the volume spotted.
# [5] = system: Cutibacterium acnes DSM 16379; assay: spot-on-lawn assay; format: cell-based; design: key to Activity, RPC fraction: +: zone of inhibition; (+): diffuse zone of inhibition; −: no zone of inhibition
# Method: as §2
# Listeria innocua LMG2785 = assay: spot-on-lawn assay; format: cell-based; design: key to Activity, RPC fraction: +: zone of inhibition; (+): diffuse zone of inhibition; −: no zone of inhibition
# Method: as §2
# [6] = system: Bacillus subtilis DSM 402; assay: spot-on-lawn assay; format: cell-based; design: key: +: zone of inhibition; (+): diffuse zone of inhibition; −: no zone of inhibition; conditions: ten-microliter RPC fraction
# Method: as §2
# [7] = system: Corynebacterium ammoniagenes DSM 20306; assay: spot-on-lawn assay; format: cell-based; design: key: +: zone of inhibition; (+): diffuse zone of inhibition; −: no zone of inhibition; conditions: ten-microliter RPC fraction
# Method: as §2
# [8] = system: Corynebacterium amycolatum DSM 6922; assay: spot-on-lawn assay; format: cell-based; design: key: +: zone of inhibition; (+): diffuse zone of inhibition; −: no zone of inhibition; conditions: ten-microliter RPC fraction
# Method: as §2
# [9] = system: Corynebacterium casei DSM 44701; assay: spot-on-lawn assay; format: cell-based; design: key: +: zone of inhibition; (+): diffuse zone of inhibition; −: no zone of inhibition; conditions: ten-microliter RPC fraction
# Method: as §2
# [10] = system: Corynebacterium efficiens DSM 44549; assay: spot-on-lawn assay; format: cell-based; design: key: +: zone of inhibition; (+): diffuse zone of inhibition; −: no zone of inhibition; conditions: ten-microliter RPC fraction
# Method: as §2
# [11] = system: Corynebacterium lipophiloflavum DSM 44291; assay: spot-on-lawn assay; format: cell-based; design: key: +: zone of inhibition; (+): diffuse zone of inhibition; −: no zone of inhibition; conditions: ten-microliter RPC fraction
# Method: as §2
# [12] = system: Corynebacterium striatum DSM 20668; assay: spot-on-lawn assay; format: cell-based; design: key: +: zone of inhibition; (+): diffuse zone of inhibition; −: no zone of inhibition; conditions: ten-microliter RPC fraction
# Method: as §2
# [13] = system: Corynebacterium xerosis DSM 20743; assay: spot-on-lawn assay; format: cell-based; design: key: +: zone of inhibition; (+): diffuse zone of inhibition; −: no zone of inhibition; conditions: ten-microliter RPC fraction
# Method: as §2
# [14] = system: Escherichia coli K-12 MG1655; assay: spot-on-lawn assay; format: cell-based; design: key: +: zone of inhibition; (+): diffuse zone of inhibition; −: no zone of inhibition; conditions: ten-microliter RPC fraction
# Method: as §2
# [15] = system: Lactobacillus plantarum DSM 1055; assay: spot-on-lawn assay; format: cell-based; design: key: +: zone of inhibition; (+): diffuse zone of inhibition; −: no zone of inhibition; conditions: ten-microliter RPC fraction
# Method: as §2
# [16] = system: Lactococcus lactis IL1403; assay: spot-on-lawn assay; format: cell-based; design: key: +: zone of inhibition; (+): diffuse zone of inhibition; −: no zone of inhibition; conditions: ten-microliter RPC fraction
# Method: as §2
# [17] = system: Listeria monocytogenes EGD-e; assay: spot-on-lawn assay; format: cell-based; design: key: +: zone of inhibition; (+): diffuse zone of inhibition; −: no zone of inhibition; conditions: ten-microliter RPC fraction
# Method: as §2
# [18] = system: Micrococcus luteus DSM 20030; assay: spot-on-lawn assay; format: cell-based; design: key: +: zone of inhibition; (+): diffuse zone of inhibition; −: no zone of inhibition; conditions: ten-microliter RPC fraction
# Method: as §2
# [19] = system: Pediococcus acidilactici 347; assay: spot-on-lawn assay; format: cell-based; design: key: +: zone of inhibition; (+): diffuse zone of inhibition; −: no zone of inhibition; conditions: ten-microliter RPC fraction
# Method: as §2
# [20] = system: Pseudomonas fluorescens DSM 50090; assay: spot-on-lawn assay; format: cell-based; design: key: +: zone of inhibition; (+): diffuse zone of inhibition; −: no zone of inhibition; conditions: ten-microliter RPC fraction
# Method: as §2
# [21] = system: Staphylococcus aureus ATCC 29213; assay: spot-on-lawn assay; format: cell-based; design: key: +: zone of inhibition; (+): diffuse zone of inhibition; −: no zone of inhibition; conditions: ten-microliter RPC fraction
# Method: as §2
# [22] = system: Staphylococcus epidermidis DSM 3269; assay: spot-on-lawn assay; format: cell-based; design: key: +: zone of inhibition; (+): diffuse zone of inhibition; −: no zone of inhibition; conditions: ten-microliter RPC fraction
# Method: as §2
# C. glutamicum ATCC 13032 [23] = assay: fluorescence microscopy of propidium iodide-stained bacteria; format: cell-based, Corynebacterium glutamicum; conditions: 4,000-BU/mL RPC fraction, 10 to 30 min incubation
# Method: A fresh culture of C. glutamicum ATCC 13032 was washed once in phosphate-buffered saline (PBS), and bacteria were resuspended in saline (0.9% [wt/vol] NaCl) at an OD600 of 1. An 87.5-μL concentration of the cell suspension was mixed with nisin, cetyltrimethylammonium bromide (CTAB), H2O, or the RPC fraction containing corynaridin to the indicated concentrations and incubated for 10 to 30 min in the dark. Then, the bacteria were stained using 12.5 μL propidium iodide (25 μg/mL) (Invitrogen, Darmstadt, Germany) and again incubated for 15 min in the dark. Samples were imaged using a Axio Observer Z1 (Zeiss, Oberkochen, Germany) in bright-field and fluorescence mode with a filter set for propidium iodide (excitation at 575 to 625 nm, emission at 660 to 710 nm). Images were acquired with a 63× lens objective and analyzed using the Zen software (version 2.3 SP1; Zeiss).
# trypsin = format: in vitro ADME
# Method: (§3) To assess the physicochemical properties of the purified compound, it was tested for resistance to protease and heat treatment (Fig. 3c and d). While a reduction of activity of the RPC fraction to 8,000 BU/mL (i.e., about 4-fold) was observed after incubation with trypsin or proteinase K, heat treatment at 80°C and 100°C for 10 min had no effect.
# proteinase K = proteinase K (Parengyodontium album, UniProt P06873); assay: resistance to protease treatment; format: in vitro ADME
# Chain of proteinase K (P06873 106-384): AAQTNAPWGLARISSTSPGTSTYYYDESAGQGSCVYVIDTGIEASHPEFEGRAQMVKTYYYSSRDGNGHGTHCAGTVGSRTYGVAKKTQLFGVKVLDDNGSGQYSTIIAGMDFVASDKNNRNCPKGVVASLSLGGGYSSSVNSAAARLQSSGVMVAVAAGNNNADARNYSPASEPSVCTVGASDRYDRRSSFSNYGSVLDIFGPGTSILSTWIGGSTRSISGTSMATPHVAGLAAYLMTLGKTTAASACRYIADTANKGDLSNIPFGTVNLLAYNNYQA
# Method: as §3
# [24] = resistance to heat treatment; format: physicochemical; conditions: read-out spot-on-lawn, 10-μL sample
# Method: as §3
compound,measurement,setting,value
"O=C(N[C@H](CO)[C@H](O)c1ccc([N+](=O)[O-])cc1)C(Cl)Cl [chloramphenicol, reference compound]",CFU per milliliter throughout the experiment,"C. glutamicum ATCC 13032 [1]; 6.5 μg/mL, 2x TY, 30°C, 24 h",stable levels of CFU per milliliter
"CCCCCCCCCCCCCCCC[N+](C)(C)C [CTAB, cetyltrimethylammonium bromide]",change of pHluorin2 fluorescence ratio (excitation 400/480 nm),[2]; positive controls,reduced fluorescence ratios
salinipeptins,growth inhibition,[3],inhibit growth
cypemycin,antimicrobial activity,Micrococcus luteus,limited to Micrococcus luteus
corynaridin,volumetric bacteriocin activity of RPC preparation,"[4]; purified from CLI culture supernatant (ammonium sulfate, CIEX, RPC), resuspended in HPLC-grade H2O, BU/mL = last inhibiting dilution factor / volume spotted","32,000 BU/mL"
same,volumetric bacteriocin activity of RPC sample for LC-MS,"[4]; purified from CLIV minimal medium supernatant (CIEX, RPC), corresponding to 0.5 μg/mL protein","40,000 BU/mL"
same,"Activity, RPC fraction","[4]; spot-on-lawn, ten-microliter RPC fraction",+
same,"Activity, RPC fraction",[5]; ten-microliter RPC fraction,(+)
same,concentration of RPC fraction at which low levels of inhibition were achieved,[5]; total protein of RPC fraction,"> 1,000 μg/mL"
same,"Activity, RPC fraction",Listeria innocua LMG2785; ten-microliter RPC fraction,(+)
same,concentration of RPC fraction at which low levels of inhibition were achieved,Listeria innocua LMG2785; total protein of RPC fraction,"> 1,000 μg/mL"
same,"Activity, RPC fraction",[6],−
same,"Activity, RPC fraction",[7],+
same,"Activity, RPC fraction",[8],+
same,"Activity, RPC fraction",[9],+
same,"Activity, RPC fraction",[10],+
same,"Activity, RPC fraction",[11],+
same,"Activity, RPC fraction",[12],+
same,"Activity, RPC fraction",[13],+
same,"Activity, RPC fraction",[14],−
same,"Activity, RPC fraction",[15],−
same,"Activity, RPC fraction",[16],+
same,"Activity, RPC fraction",[17],−
same,"Activity, RPC fraction",[18],+
same,"Activity, RPC fraction",[19],−
same,"Activity, RPC fraction",[20],−
same,"Activity, RPC fraction",[21],−
same,"Activity, RPC fraction",[22],−
same,CFU/mL after 24 h,C. glutamicum ATCC 13032 [1]; RPC fraction at 400 BU/mL (lower concentration),slightly increased CFU/mL after 24 h
same,decrease of CFU per milliliter after 2 h,"C. glutamicum ATCC 13032 [1]; RPC fraction at 400 BU/mL, 2x TY, 30°C, start ~10^7 CFU/mL",4 orders of magnitude
same,CFU/mL after 24 h,"C. glutamicum ATCC 13032 [1]; RPC fraction at 1,060 BU/mL (high concentration)",remained at low levels of CFU/mL
same,decrease of CFU per milliliter after 2 h,"C. glutamicum ATCC 13032 [1]; RPC fraction at 1,060 BU/mL, 2x TY, 30°C, start ~10^7 CFU/mL",4 orders of magnitude
same,change of pHluorin2 fluorescence ratio (excitation 400/480 nm),"[2]; concentrations up to 10,000 BU/mL, at least three biological replicates",did not result in a change of fluorescence ratios
same,membrane integrity by propidium iodide staining,C. glutamicum ATCC 13032 [23],no evidence for compromised integrity
same,reduction of activity after incubation with trypsin,trypsin,about 4 fold
same,reduction of activity after incubation with proteinase K,"proteinase K; 32,000 to 8,000 BU/mL",about 4 fold
same,activity of the RPC fraction after incubation with proteinase K,"proteinase K; starting activity 32,000 BU/mL, read-out spot-on-lawn, 10-μL sample, RPC fraction 606 μg/mL total protein","8,000 BU/mL"
same,effect of heat treatment on activity,[24]; 80°C for 10 min,no effect
same,effect of heat treatment on activity,[24]; 100°C for 10 min,no effect
nisin [reference compound],reduced number of CFU/mL after 2 h,"C. glutamicum ATCC 13032 [1]; 1.25 μg/mL, 2x TY, 30°C, start ~10^7 CFU/mL",> 4 log
same,change of pHluorin2 fluorescence ratio (excitation 400/480 nm),[2]; positive controls,reduced fluorescence ratios
